Our source for the EC50 and IC50 values is patent publication US20250034136A1 (Nimbus Wadjet, Inc., priority 2023, published 2025).

The structures appear in SMILES notation. Read-outs that look alike come from different tables or passages of the source.

Test [1] concerns p21 induction in HCT116 cells. The test is described as follows: p21 induction in HCT116 cells. Particulars: Homo sapiens, HCT-116, 24 h, read-out: P21_EC50. It counts as cell-based. In a few lines: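 HCT116 cells, 2,000/well, treated 24 h at 37 °C with 11-point compound dilutions in duplicate. Fixed, then immunostained for p21 and GAPDH and read by near-IR imaging at 800/700 nm. Normalized to DMSO (low) and reference WRN inhibitor (high) controls; EC50 from non-linear regression.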

For test [2], the target named is WRN (BV08), human Werner helicase (Uniprot Q14191, amino acids 517-1235 with L1074F point mutation) (Homo sapiens (Human), UniProt Q14191, L1074F). In words: WRN (BV08) ADP-Glo assay. It counts as biochemical. To be noted: class symbols A-E, read-out: ADP-Glo_hWRN_IC50. A general note: ADP-Glo first removes unused ATP, then detects ADP through luciferase.
[3] abbreviates: HCT116 cells, 24 h compound incubation.

Chain of WRN (BV08), human Werner helicase (Uniprot Q14191, amino acids 517-1235 with L1074F point mutation) (Q14191 other isoform, or with tags, fused parts or gaps L1074F (already in the parent)): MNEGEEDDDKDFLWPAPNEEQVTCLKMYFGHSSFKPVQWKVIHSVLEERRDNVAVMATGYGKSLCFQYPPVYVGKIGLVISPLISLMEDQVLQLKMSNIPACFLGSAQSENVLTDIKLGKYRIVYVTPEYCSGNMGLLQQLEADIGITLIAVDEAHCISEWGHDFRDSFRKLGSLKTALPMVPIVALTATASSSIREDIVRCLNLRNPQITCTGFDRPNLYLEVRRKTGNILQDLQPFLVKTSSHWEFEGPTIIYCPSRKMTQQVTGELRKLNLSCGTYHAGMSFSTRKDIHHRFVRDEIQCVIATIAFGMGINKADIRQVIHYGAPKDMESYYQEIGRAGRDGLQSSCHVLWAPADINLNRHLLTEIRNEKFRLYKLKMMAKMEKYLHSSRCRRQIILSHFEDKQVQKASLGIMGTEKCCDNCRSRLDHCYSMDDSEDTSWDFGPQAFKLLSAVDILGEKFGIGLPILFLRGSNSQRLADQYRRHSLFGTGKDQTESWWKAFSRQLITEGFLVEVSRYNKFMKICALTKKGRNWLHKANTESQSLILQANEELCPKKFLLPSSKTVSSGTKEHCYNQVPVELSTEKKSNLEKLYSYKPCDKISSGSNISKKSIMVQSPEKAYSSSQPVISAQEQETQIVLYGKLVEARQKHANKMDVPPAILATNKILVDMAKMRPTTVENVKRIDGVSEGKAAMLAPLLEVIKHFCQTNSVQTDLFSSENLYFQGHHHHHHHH

As to `CCc1c(N2CCN(C(=O)c3ncnc(C)c3O)[C@@H]3CC(F)(F)C[C@H]32)c(=O)c2nc(N(C)C)cnc2n1CC(=O)Nc1ccc(C(F)(F)F)cc1Cl` (single isomer, unassigned) [I-297, N-(2-chloro-4-(trifluoromethyl)phenyl)-2-(7-(6,6-difluoro-4-(5-hydroxy-6-methylpyrimidine-4-carbonyl)octahydro-1H-cyclopenta[b]pyrazin-1-yl)-2-(dimethylamino)-6-ethyl-8-oxopyrido[2,3-b]pyrazin-5(8H)-yl)acetamide], the EC50 in test [1] (setting [3]) is more than 5000 nM. For the same compound, the IC50 in test [2] is 100 to 500 nM.
As for `CCc1c(N2CCN(C(=O)c3ncnc(C)c3O)[C@@H](COC)C2)c(=O)c2nc(N(C)C)cnc2n1CC(=O)Nc1ccc(C(F)(F)F)cc1Cl` (single isomer, unassigned) [I-303, N-(2-chloro-4-(trifluoromethyl)phenyl)-2-(2-(dimethylamino)-6-ethyl-7-(4-(5-hydroxy-6-methylpyrimidine-4-carbonyl)-3-(methoxymethyl)piperazin-1-yl)-8-oxopyrido[2,3-b]pyrazin-5(8H)-yl)acetamide], the EC50 in test [1] (setting [3]) was more than 5000 nM. Besides, the IC50 in test [2] lay within 50 to 100 nM.
Regarding `CCc1c(N2CCN(C(=O)c3ncnc(C)c3O)CC2)c(=O)c2nc(C3CC3(F)F)cnc2n1CC(=O)Nc1ccc(C(F)(F)F)cc1Cl` (stereo in doubt) [I-237, N-[2-chloro-4-(trifluoromethyl)phenyl]-2-{2-[(1R)-2,2-difluorocyclopropyl]-6-ethyl-7-[4-(5-hydroxy-6-methylpyrimidine-4-carbonyl)piperazin-1-yl]-8-oxo-5H,8H-pyrido[2,3-b]pyrazin-5-yl}acetamide], the EC50 in test [1] (setting [3]) is more than 5000 nM. Moreover, in test [2], the IC50 fell in the range of 5 to 50 nM.
Regarding `CCc1c(N2CCN(C(=O)c3ncnc(C)c3O)CC2)c(=O)c2ncc(C)nc2n1CC(=O)Nc1ccc(C(F)(F)F)cc1Cl` [I-1, N-(2-chloro-4-(trifluoromethyl)phenyl)-2-(6-ethyl-7-(4-(5-hydroxy-6-methylpyrimidine-4-carbonyl)piperazin-1-yl)-3-methyl-8-oxopyrido[2,3-b]pyrazin-5(8H)-yl)acetamide], the EC50 in test [1] lay within 2000 to 5000 nM. For the same compound, the IC50 in test [2] was in the range of 5 to 50 nM.
For the compound `CCc1c(N2CCN(C(=O)c3cnn(C)c3)CC2)c(=O)c2ncc(C)nc2n1CC(=O)Nc1ccc(C(F)(F)F)cc1Cl` [I-2, N-(2-chloro-4-(trifluoromethyl)phenyl)-2-(6-ethyl-3-methyl-7-(4-(1-methyl-1H-pyrazole-4-carbonyl)piperazin-1-yl)-8-oxopyrido[2,3-b]pyrazin-5(8H)-yl)acetamide], in test [1] (setting [3]), the EC50 is more than 5000 nM. Besides, the IC50 in test [2] was in the range of 50 to 100 nM.
For `CCc1c(N2CCN(C(=O)c3ncccc3O)CC2)c(=O)c2ncc(C)nc2n1CC(=O)Nc1ccc(C(F)(F)F)cc1Cl` [I-3, N-(2-chloro-4-(trifluoromethyl)phenyl)-2-(6-ethyl-7-(4-(3-hydroxypicolinoyl)piperazin-1-yl)-3-methyl-8-oxopyrido[2,3-b]pyrazin-5(8H)-yl)acetamide], in that order: more than 5000 nM and 5 to 50 nM.
In the same order, the values of `CCc1c(N2CCN(C(=O)c3ccnc(OC)c3O)CC2)c(=O)c2ncc(C)nc2n1CC(=O)Nc1ccc(C(F)(F)F)cc1Cl` [I-4, N-(2-chloro-4-(trifluoromethyl)phenyl)-2-(6-ethyl-7-(4-(3-hydroxy-2-methoxyisonicotinoyl)piperazin-1-yl)-3-methyl-8-oxopyrido[2,3-b]pyrazin-5(8H)-yl)acetamide] are more than 5000 nM and 5 to 50 nM.
For `CCc1c(N2CCN(C(C)=O)CC2)c(=O)c2ncc(C)nc2n1CC(=O)Nc1ccc(C(F)(F)F)cc1Cl` [I-5, 2-(7-(4-acetylpiperazin-1-yl)-6-ethyl-3-methyl-8-oxopyrido[2,3-b]pyrazin-5(8H)-yl)-N-(2-chloro-4-(trifluoromethyl)phenyl)acetamide], in that order: more than 5000 nM and 100 to 500 nM.
As to `CCc1c(N2CCN(C(=O)c3c(O)ccnc3OC)CC2)c(=O)c2ncc(C)nc2n1CC(=O)Nc1ccc(C(F)(F)F)cc1Cl` [I-6, N-(2-chloro-4-(trifluoromethyl)phenyl)-2-(6-ethyl-7-(4-(4-hydroxy-2-methoxynicotinoyl)piperazin-1-yl)-3-methyl-8-oxopyrido[2,3-b]pyrazin-5(8H)-yl)acetamide], the EC50 in test [1] (setting [3]) lay within 2000 to 5000 nM. Further, the IC50 in test [2] was 5 to 50 nM.
In the same order, the values of `CCc1c(N2CCN(C(=O)c3ncnc(C)c3O)CC2)c(=O)c2nc(-c3ccnc(OC)c3)cnc2n1CC(=O)Nc1ccc(C(F)(F)F)cc1Cl` [I-7, N-(2-chloro-4-(trifluoromethyl)phenyl)-2-(6-ethyl-7-(4-(5-hydroxy-6-methylpyrimidine-4-carbonyl)piperazin-1-yl)-2-(2-methoxypyridin-4-yl)-8-oxopyrido[2,3-b]pyrazin-5(8H)-yl)acetamide] are more than 5000 nM and 5 to 50 nM.
In the same order, the values of `C/C=C/c1cnc2c(n1)c(=O)c(N1CCN(C(=O)c3ncnc(C)c3O)CC1)c(CC)n2CC(=O)Nc1ccc(C(F)(F)F)cc1Cl` [I-8, (E)-N-(2-chloro-4-(trifluoromethyl)phenyl)-2-(6-ethyl-7-(4-(5-hydroxy-6-methylpyrimidine-4-carbonyl)piperazin-1-yl)-8-oxo-2-(prop-1-en-1-yl)pyrido[2,3-b]pyrazin-5(8H)-yl)acetamide] are 500 to 2000 nM and 5 to 50 nM.
With `C=C(C)c1cnc2c(n1)c(=O)c(N1CCN(C(=O)c3ncnc(C)c3O)CC1)c(CC)n2CC(=O)Nc1ccc(C(F)(F)F)cc1Cl` [I-9, N-(2-chloro-4-(trifluoromethyl)phenyl)-2-(6-ethyl-7-(4-(5-hydroxy-6-methylpyrimidine-4-carbonyl)piperazin-1-yl)-8-oxo-2-(prop-1-en-2-yl)pyrido[2,3-b]pyrazin-5(8H)-yl)acetamide], the EC50 in test [1] (setting [3]) is 500 to 2000 nM. Besides, in test [2], the IC50 was 5 to 50 nM.
In the same order, the values of `CCc1c(N2CCN(C(=O)c3ncnc(C)c3O)CC2)c(=O)c2nc(C3CC3)cnc2n1CC(=O)Nc1ccc(C(F)(F)F)cc1Cl` [I-10, N-(2-chloro-4-(trifluoromethyl)phenyl)-2-(2-cyclopropyl-6-ethyl-7-(4-(5-hydroxy-6-methylpyrimidine-4-carbonyl)piperazin-1-yl)-8-oxopyrido[2,3-b]pyrazin-5(8H)-yl)acetamide] are 2000 to 5000 nM and 5 to 50 nM.
In the same order, the values of `CC#Cc1cnc2c(n1)c(=O)c(N1CCN(C(=O)c3ncnc(C)c3O)CC1)c(CC)n2CC(=O)Nc1ccc(C(F)(F)F)cc1Cl` [I-11, N-(2-chloro-4-(trifluoromethyl)phenyl)-2-(6-ethyl-7-(4-(5-hydroxy-6-methylpyrimidine-4-carbonyl)piperazin-1-yl)-8-oxo-2-(prop-1-yn-1-yl)pyrido[2,3-b]pyrazin-5(8H)-yl)acetamide] are 2000 to 5000 nM and 5 to 50 nM.
In the same order, the values of `CCc1c(N2CCN(C(=O)c3ncnc(C)c3O)CC2)c(=O)c2nc(OC)c(C)nc2n1CC(=O)Nc1ccc(C(F)(F)F)cc1Cl` [I-12, N-(2-chloro-4-(trifluoromethyl)phenyl)-2-(6-ethyl-7-(4-(5-hydroxy-6-methylpyrimidine-4-carbonyl)piperazin-1-yl)-2-methoxy-3-methyl-8-oxopyrido[2,3-b]pyrazin-5(8H)-yl)acetamide] are more than 5000 nM and 5 to 50 nM.
For `CCc1c(N2CCN(C(=O)c3ncnc(C)c3O)CC2)c(=O)c2nc(C(F)F)cnc2n1CC(=O)Nc1ccc(C(F)(F)F)cc1Cl` [I-13, N-(2-chloro-4-(trifluoromethyl)phenyl)-2-(2-(difluoromethyl)-6-ethyl-7-(4-(5-hydroxy-6-methylpyrimidine-4-carbonyl)piperazin-1-yl)-8-oxopyrido[2,3-b]pyrazin-5(8H)-yl)acetamide], the EC50 in test [1] (setting [3]) was more than 5000 nM. Besides, in test [2], the IC50 lay within 50 to 100 nM.
Consider `CCc1c(N2CCN(C(=O)c3ncnc(C)c3O)CC2)c(=O)c2nc(N(C)C)cnc2n1CC(=O)Nc1ccc(C(F)(F)F)cc1Cl` [I-14, N-(2-chloro-4-(trifluoromethyl)phenyl)-2-(2-(dimethylamino)-6-ethyl-7-(4-(5-hydroxy-6-methylpyrimidine-4-carbonyl)piperazin-1-yl)-8-oxopyrido[2,3-b]pyrazin-5(8H)-yl)acetamide], for which the EC50 in test [1] was 500 to 2000 nM. In addition, the IC50 in test [2] lay in the range of 5 to 50 nM.
With `CCO/C=C/c1cnc2c(n1)c(=O)c(N1CCN(C(=O)c3ncnc(C)c3O)CC1)c(CC)n2CC(=O)Nc1ccc(C(F)(F)F)cc1Cl` [I-15, (E)-N-(2-chloro-4-(trifluoromethyl)phenyl)-2-(2-(2-ethoxyvinyl)-6-ethyl-7-(4-(5-hydroxy-6-methylpyrimidine-4-carbonyl)piperazin-1-yl)-8-oxopyrido[2,3-b]pyrazin-5(8H)-yl)acetamide], the EC50 in test [1] (setting [3]) was less than 500 nM. The IC50 in test [2] is 5 to 50 nM.
In the same order, the values of `CCc1c(N2CCN(C(=O)c3ncnc(C)c3O)CC2)c(=O)c2nc(C3CC3)c(C)nc2n1CC(=O)Nc1ccc(C(F)(F)F)cc1Cl` [I-17, N-(2-chloro-4-(trifluoromethyl)phenyl)-2-(2-cyclopropyl-6-ethyl-7-(4-(5-hydroxy-6-methylpyrimidine-4-carbonyl)piperazin-1-yl)-3-methyl-8-oxopyrido[2,3-b]pyrazin-5(8H)-yl)acetamide] are 500 to 2000 nM and 5 to 50 nM.
Take `C=Cc1nc2c(=O)c(N3CCN(C(=O)c4ncnc(C)c4O)CC3)c(CC)n(CC(=O)Nc3ccc(C(F)(F)F)cc3Cl)c2nc1C` [I-18, N-(2-chloro-4-(trifluoromethyl)phenyl)-2-(6-ethyl-7-(4-(5-hydroxy-6-methylpyrimidine-4-carbonyl)piperazin-1-yl)-3-methyl-8-oxo-2-vinylpyrido[2,3-b]pyrazin-5(8H)-yl)acetamide]: in test [1], the EC50 fell in the range of 500 to 2000 nM. Moreover, in test [2], the IC50 fell in the range of 5 to 50 nM.
